Patent US20120029187A1, “HALOALKYLSULFONANILIDE DERIVATIVE” (Nissan Chemical Industries, Ltd., priority 2009, published 2012)

Legend:
Assay type in all cases: in vivo
[1] = tested on: barnyardgrass; assay: Test Example 1: herbicidal effects in preemergence treatment under submerged conditions; conditions: dose 2.52 g/a
Procedure, shortened: (§1)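 Score 0–5 by mortality (5: ≥90%; 0: <5%), read 3 weeks post-application. Paddy-type cups: alluvial soil under 4 cm water, weeds seeded plus transplanted 2.5-leaf rice; diluted EC dosed onto water surface same day as sowing, g/a basis; greenhouse 25 to 30° C.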

[2] = tested on: bulrush; assay: as above; conditions: dose 2.52 g/a
Procedure, shortened: as §1

[3] = tested on: ducksalad; assay: as above; conditions: dose 2.52 g/a
Procedure, shortened: as §1

[4] = tested on: barnyardgrass; assay: Test Example 2: herbicidal effects during the vegetation period under submerged conditions; conditions: treatment during the vegetation period under submerged conditions; dose 2.52 g/a
Procedure, shortened: (§2)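 Barnyardgrass, bulrush and ducksalad were co-sown in alluvial soil flooded to 4 cm and grown in a greenhouse at 25 to 30° C. At the 1- or 2-leaf stage, water-diluted emulsifiable concentrates went onto the water surface at set doses (g/a). Herbicidal effect was scored three weeks later on a graded scale.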

[5] = tested on: bulrush; assay: as above; conditions: treatment during the vegetation period under submerged conditions; dose 2.52 g/a
Procedure, shortened: as §2

[6] = tested on: ducksalad; assay: as above; conditions: treatment during the vegetation period under submerged conditions; dose 2.52 g/a
Procedure, shortened: as §2

[7] = tested on: Italian ryegrass; assay: Test Example 3: herbicidal effects in soil treatment; conditions: dose 6.3 g/a
Procedure, shortened: (§3)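 Seeds were sown in sterilized diluvial soil and covered with about 1.5 cm of soil. Compounds, formulated as emulsifiable concentrates and diluted with water, were sprayed evenly over the soil surface at set doses in g/a. Herbicidal effect was scored on a rating scale three weeks later.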

[8] = tested on: barnyardgrass; assay: as above; conditions: dose 6.3 g/a
Procedure, shortened: as §3

[9] = tested on: common chickweed; assay: as above; conditions: dose 6.3 g/a
Procedure, shortened: as §3

[10] = tested on: common lambsquater; assay: as above; conditions: dose 6.3 g/a
Procedure, shortened: as §3

[11] = tested on: common ragweed; assay: as above; conditions: dose 6.3 g/a
Procedure, shortened: as §3

[12] = tested on: giant foxtail; assay: as above; conditions: dose 6.3 g/a
Procedure, shortened: as §3

[13] = tested on: large crabgrass; assay: as above; conditions: dose 6.3 g/a
Procedure, shortened: as §3

[14] = tested on: redroot pigweed; assay: as above; conditions: dose 6.3 g/a
Procedure, shortened: as §3

[15] = tested on: water foxtail; assay: as above; conditions: dose 6.3 g/a
Procedure, shortened: as §3

[16] = tested on: wild oat; assay: as above; conditions: dose 6.3 g/a
Procedure, shortened: as §3

[17] = tested on: Italian ryegrass; assay: Test Example 4: herbicidal effect in foliage treatment; conditions: dose 6.3 g/a
Procedure, shortened: (§4)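 14-day greenhouse-grown plants (25–30° C) sprayed on foliage with diluted EC; dose as g/a; effect graded after 3 weeks.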

[18] = tested on: barnyardgrass; assay: as above; conditions: dose 6.3 g/a
Procedure, shortened: as §4

[19] = tested on: beadstraw; assay: as above; conditions: dose 6.3 g/a
Procedure, shortened: as §4

[20] = tested on: common chickweed; assay: as above; conditions: dose 6.3 g/a
Procedure, shortened: as §4

[21] = tested on: common lambsquater; assay: as above; conditions: dose 6.3 g/a
Procedure, shortened: as §4

[22] = tested on: common ragweed; assay: as above; conditions: dose 6.3 g/a
Procedure, shortened: as §4

[23] = tested on: giant foxtail; assay: as above; conditions: dose 6.3 g/a
Procedure, shortened: as §4

[24] = tested on: large crabgrass; assay: as above; conditions: dose 6.3 g/a
Procedure, shortened: as §4

[25] = tested on: redroot pigweed; assay: as above; conditions: dose 6.3 g/a
Procedure, shortened: as §4

[26] = tested on: water foxtail; assay: as above; conditions: dose 6.3 g/a
Procedure, shortened: as §4

[27] = tested on: wild oat; assay: as above; conditions: dose 6.3 g/a
Procedure, shortened: as §4

[28] = three weeks after the application

SMILES: CCC(=O)N(c1ccccc1CN1COC(C)CC1=O)S(=O)(=O)C(F)(F)F (stereo not drawn) [II-5]
- A: barnyardgrass, herbicidal effect (evaluation scale 0-5) [1]: 5 (mortality of 90% or above (nearly complete death))
- B: bulrush, herbicidal effect (evaluation scale 0-5) [2]: 5 (mortality of 90% or above (nearly complete death))
- C: ducksalad, herbicidal effect (evaluation scale 0-5) [3]: 5 (mortality of 90% or above (nearly complete death))
- A: barnyardgrass, herbicidal effect (evaluation scale 0-5) [4]: 5 (mortality of 90% or above (nearly complete death))
- B: bulrush, herbicidal effect (evaluation scale 0-5) [5]: 5 (mortality of 90% or above (nearly complete death))
- C: ducksalad, herbicidal effect (evaluation scale 0-5) [6]: 5 (mortality of 90% or above (nearly complete death))
- H: Italian ryegrass, herbicidal effect (evaluation scale 0-5) [7]: 4 (mortality of at least 70% and less than 90%)
- A: barnyardgrass, herbicidal effect (evaluation scale 0-5) [8]: 5 (mortality of 90% or above (nearly complete death))
- N: common chickweed, herbicidal effect (evaluation scale 0-5) [9]: 5 (mortality of 90% or above (nearly complete death))
- L: common lambsquater, herbicidal effect (evaluation scale 0-5) [10]: 4 (mortality of at least 70% and less than 90%)
- J: common ragweed, herbicidal effect (evaluation scale 0-5) [11]: 4 (mortality of at least 70% and less than 90%)
- E: giant foxtail, herbicidal effect (evaluation scale 0-5) [12]: 3 (mortality of at least 40% and less than 70%)
- D: large crabgrass, herbicidal effect (evaluation scale 0-5) [13]: 5 (mortality of 90% or above (nearly complete death))
- K: redroot pigweed, herbicidal effect (evaluation scale 0-5) [14]: 1 (mortality of at least 5% and less than 20%)
- G: water foxtail, herbicidal effect (evaluation scale 0-5) [15]: 5 (mortality of 90% or above (nearly complete death))
- F: wild oat, herbicidal effect (evaluation scale 0-5) [16]: 0 (mortality of less than 5% (almost ineffective))
- H: Italian ryegrass, herbicidal effect ([17]; three weeks after application): 3 (mortality of at least 40% and less than 70%)
- A: barnyardgrass, herbicidal effect ([18]; three weeks after application): 5 (mortality of 90% or above (nearly complete death))
- O: beadstraw, herbicidal effect ([19]; three weeks after application): 0 (mortality of less than 5% (almost ineffective))
- N: common chickweed, herbicidal effect ([20]; three weeks after application): 3 (mortality of at least 40% and less than 70%)
- L: common lambsquater, herbicidal effect ([21]; three weeks after application): 3 (mortality of at least 40% and less than 70%)
- J: common ragweed, herbicidal effect ([22]; three weeks after application): 5 (mortality of 90% or above (nearly complete death))
- E: giant foxtail, herbicidal effect ([23]; three weeks after application): 5 (mortality of 90% or above (nearly complete death))
- D: large crabgrass, herbicidal effect ([24]; three weeks after application): 5 (mortality of 90% or above (nearly complete death))
- K: redroot pigweed, herbicidal effect ([25]; three weeks after application): 0 (mortality of less than 5% (almost ineffective))
- G: water foxtail, herbicidal effect ([26]; three weeks after application): 5 (mortality of 90% or above (nearly complete death))
- F: wild oat, herbicidal effect ([27]; three weeks after application): 0 (mortality of less than 5% (almost ineffective))

SMILES: CC1(C)CC(=O)N(Cc2ccccc2NS(=O)(=O)C(F)(F)F)CO1 [II-17, 6,6-dimethyl-3-(2-trifluoromethanesulfonylaminobenzyl)-1,3-oxazinan-4-one]
- A: barnyardgrass, herbicidal effect (evaluation scale 0-5) [1]: 5 (mortality of 90% or above (nearly complete death))
- B: bulrush, herbicidal effect (evaluation scale 0-5) [2]: 5 (mortality of 90% or above (nearly complete death))
- C: ducksalad, herbicidal effect (evaluation scale 0-5) [3]: 5 (mortality of 90% or above (nearly complete death))
- A: barnyardgrass, herbicidal effect (evaluation scale 0-5) [4]: 5 (mortality of 90% or above (nearly complete death))
- B: bulrush, herbicidal effect (evaluation scale 0-5) [5]: 5 (mortality of 90% or above (nearly complete death))
- C: ducksalad, herbicidal effect (evaluation scale 0-5) [6]: 5 (mortality of 90% or above (nearly complete death))
- H: Italian ryegrass, herbicidal effect (evaluation scale 0-5) [7]: 4 (mortality of at least 70% and less than 90%)
- A: barnyardgrass, herbicidal effect (evaluation scale 0-5) [8]: 5 (mortality of 90% or above (nearly complete death))
- N: common chickweed, herbicidal effect (evaluation scale 0-5) [9]: 4 (mortality of at least 70% and less than 90%)
- L: common lambsquater, herbicidal effect (evaluation scale 0-5) [10]: 2 (mortality of at least 20% and less than 40%)
- J: common ragweed, herbicidal effect (evaluation scale 0-5) [11]: 5 (mortality of 90% or above (nearly complete death))
- E: giant foxtail, herbicidal effect (evaluation scale 0-5) [12]: 5 (mortality of 90% or above (nearly complete death))
- D: large crabgrass, herbicidal effect (evaluation scale 0-5) [13]: 5 (mortality of 90% or above (nearly complete death))
- K: redroot pigweed, herbicidal effect (evaluation scale 0-5) [14]: 1 (mortality of at least 5% and less than 20%)
- G: water foxtail, herbicidal effect (evaluation scale 0-5) [15]: 5 (mortality of 90% or above (nearly complete death))
- F: wild oat, herbicidal effect (evaluation scale 0-5) [16]: 0 (mortality of less than 5% (almost ineffective))
- H: Italian ryegrass, herbicidal effect ([17]; three weeks after application): 4 (mortality of at least 70% and less than 90%)
- A: barnyardgrass, herbicidal effect ([18]; three weeks after application): 5 (mortality of 90% or above (nearly complete death))
- O: beadstraw, herbicidal effect ([19]; three weeks after application): 5 (mortality of 90% or above (nearly complete death))
- N: common chickweed, herbicidal effect ([20]; three weeks after application): 4 (mortality of at least 70% and less than 90%)
- L: common lambsquater, herbicidal effect ([21]; three weeks after application): 4 (mortality of at least 70% and less than 90%)
- J: common ragweed, herbicidal effect ([22]; three weeks after application): 5 (mortality of 90% or above (nearly complete death))
- E: giant foxtail, herbicidal effect ([23]; three weeks after application): 5 (mortality of 90% or above (nearly complete death))
- D: large crabgrass, herbicidal effect ([24]; three weeks after application): 5 (mortality of 90% or above (nearly complete death))
- K: redroot pigweed, herbicidal effect ([25]; three weeks after application): 1 (mortality of at least 5% and less than 20%)
- G: water foxtail, herbicidal effect ([26]; three weeks after application): 5 (mortality of 90% or above (nearly complete death))
- F: wild oat, herbicidal effect ([27]; three weeks after application): 0 (mortality of less than 5% (almost ineffective))

SMILES: O=C1CCOCCN1Cc1ccccc1NS(=O)(=O)C(F)(F)F [Compound V-1]
- A: barnyardgrass, herbicidal effect (evaluation scale 0-5) [1]: 5 (mortality of 90% or above (nearly complete death))
- B: bulrush, herbicidal effect (evaluation scale 0-5) [2]: 5 (mortality of 90% or above (nearly complete death))
- C: ducksalad, herbicidal effect (evaluation scale 0-5) [3]: 5 (mortality of 90% or above (nearly complete death))
- A: barnyardgrass, herbicidal effect (evaluation scale 0-5) [4]: 5 (mortality of 90% or above (nearly complete death))
- B: bulrush, herbicidal effect (evaluation scale 0-5) [5]: 5 (mortality of 90% or above (nearly complete death))
- C: ducksalad, herbicidal effect (evaluation scale 0-5) [6]: 5 (mortality of 90% or above (nearly complete death))
- herbicidal effect, H: Italian ryegrass [7]: 3 (mortality of at least 40% and less than 70%)
- herbicidal effect, A: barnyardgrass [8]: 5 (mortality of 90% or above (nearly complete death))
- herbicidal effect, N: common chickweed [9]: 5 (mortality of 90% or above (nearly complete death))
- herbicidal effect, L: common lambsquater [10]: 5 (mortality of 90% or above (nearly complete death))
- herbicidal effect, J: common ragweed [11]: 5 (mortality of 90% or above (nearly complete death))
- herbicidal effect, E: giant foxtail [12]: 4 (mortality of at least 70% and less than 90%)
- herbicidal effect, D: large crabgrass [13]: 0 (mortality of less than 5% (almost ineffective))
- herbicidal effect, K: redroot pigweed [14]: 4 (mortality of at least 70% and less than 90%)
- herbicidal effect, G: water foxtail [15]: 5 (mortality of 90% or above (nearly complete death))
- herbicidal effect, F: wild oat [16]: 3 (mortality of at least 40% and less than 70%)
- H: Italian ryegrass, herbicidal effect [17, 28]: 3 (mortality of at least 40% and less than 70%)
- A: barnyardgrass, herbicidal effect [18, 28]: 5 (mortality of 90% or above (nearly complete death))
- O: beadstraw, herbicidal effect [19, 28]: 4 (mortality of at least 70% and less than 90%)
- N: common chickweed, herbicidal effect [20, 28]: 4 (mortality of at least 70% and less than 90%)
- L: common lambsquater, herbicidal effect [21, 28]: 4 (mortality of at least 70% and less than 90%)
- J: common ragweed, herbicidal effect [22, 28]: 5 (mortality of 90% or above (nearly complete death))
- E: giant foxtail, herbicidal effect [23, 28]: 5 (mortality of 90% or above (nearly complete death))
- D: large crabgrass, herbicidal effect [24, 28]: 4 (mortality of at least 70% and less than 90%)
- K: redroot pigweed, herbicidal effect [25, 28]: 1 (mortality of at least 5% and less than 20%)
- G: water foxtail, herbicidal effect [26, 28]: 5 (mortality of 90% or above (nearly complete death))
- F: wild oat, herbicidal effect [27, 28]: 0 (mortality of less than 5% (almost ineffective))
